The values below come from paper PMC7158207 (Clinical Pharmacology and Therapeutics, 2019).

Structures are written as SMILES. Converted amounts (≈) assume the structure as drawn. Structures can show the parent of a compound that is named as a salt. Where two headings read alike, the source gives them in different places. Bounds are passed on as bounds.

The nature of series [1]: Thermodynamic solubility measurement in FaSSIF pH 6.5 and SGF pH 1.6. It is filed as physicochemical. To be noted: 37 °C, thermodynamic from solid.
Series [2] in a line: Caco-2 apparent passive permeability. The class given is in vitro ADME. To be noted: human, Caco-2, pH 7.4.
Series [3] in a line: Dose-exposure proportionality in dose-escalating studies. To be noted: based on data of ref 20. The class given is in vivo, human.
The conditions of series [4]: cited from earlier work.
The conditions of series [5]: cited from earlier work; for AUC fed/fasted ratio / Cmax fed/fasted ratio: erlotinib 150 mg.
The conditions of series [6]: after oral administration; cited from earlier work.
For series [7] the following is noted: ref 36 (dabrafenib), 40 (vemurafenib), 18 (pazopanib); cited from earlier work.
The conditions of series [8]: BCS II/IV drugs; cited from earlier work.
[9] abbreviates: single dose, crizotinib 50-300, trametinib 0.125-10, dabrafenib 12-300, gefitinib 50-500 (HV), vemurafenib 240-960, pazopanib 50-2,000 mg.
The mark [10] stands for this setting: SGF, pH 1.6, simulated gastric fluid.

The compound `C[C@@H](Oc1cc(-c2cnn(C3CCNCC3)c2)cnc1N)c1c(Cl)ccc(F)c1Cl` [Crizotinib] showed a solubility at 24 h in series [1] (FaSSIF, pH 6.5, fassif) of 743 µg/mL (≈ 1650 µM). In addition, the Papp in series [2] is 15.3 ×10⁻⁶ cm/s. Also, in series [3], the “dose proportionality of single-dose PK in the authors' assessment” value is given as “linear”. For the same compound, in series [4] (setting [9]), the “Increase in exposure (dose-exposure proportionality)” value (“Increase in exposure” for short) was “Less than proportional”.
With `CC(C)(C)c1nc(-c2cccc(NS(=O)(=O)c3c(F)cccc3F)c2F)c(-c2ccnc(N)n2)s1` [Dabrafenib, Dabrafenib mesylate], the solubility at 24 h was 3.7 µg/mL in series [1] (FaSSIF, pH 6.5, fassif) and 11.7 µg/mL in series [1] (setting [10]). Besides, in series [2], the Papp was found to be 12.4 ×10⁻⁶ cm/s. Further, the “Increase in exposure” value in series [4] (setting [9]) is given as “Dose proportional”.
On to `C#Cc1cccc(Nc2ncnc3cc(OCCOC)c(OCCOC)cc23)c1` [Erlotinib, erlotinib HCl], for which the solubility at 24 h was 12.4 µg/mL in series [1] (FaSSIF, pH 6.5, fassif) and 166 µg/mL in series [1] (setting [10]). The Papp in series [2] was 40.4 ×10⁻⁶ cm/s. Further, the “Increase in exposure” value in series [4] (dosing schedule N.A., imatinib 25-1,000 mg, erlotinib 100-1,000 mg) is listed as “Dose proportional38”. Also, the AUC fed/fasted ratio is 1.97 in series [5] (first value (first period)) and 0.93 in series [5] (second value (second period)). The Cmax fed/fasted ratio in series [5] (first value (first period)) is reported as 1.57; in series [5] (second value (second period)), 1.15. Moreover, the “dose as parent drug in the feces” value in series [6] was 1 % of the dose.
Compound `COc1cc2ncnc(Nc3ccc(F)c(Cl)c3)c2cc1OCCCN1CCOCC1` [Gefitinib, gefitinib] displayed a solubility at 24 h in series [1] (FaSSIF, pH 6.5, fassif) of 88.7 µg/mL (≈ 198 µM). Besides, the Papp in series [2] was determined as 10.4 ×10⁻⁶ cm/s. Also, the “Increase in exposure” value in series [4] (setting [9]) is “Dose proportional”.
Consider `CS(=O)(=O)CCNCc1ccc(-c2ccc3ncnc(Nc4ccc(OCc5cccc(F)c5)c(Cl)c4)c3c2)o1` [Lapatinib, lapatinib ditosylate monohydrate], for which the solubility at 24 h in series [1] (FaSSIF, pH 6.5, fassif) is 35 µg/mL; in series [1] (setting [10]) it was 5.5 µg/mL. Besides, the Papp in series [2] came out at 0.21 ×10⁻⁶ cm/s.
On to `Cc1ccc(Nc2nccc(N(C)c3ccc4c(C)n(C)nc4c3)n2)cc1S(N)(=O)=O` [Pazopanib, pazopanib hydrochloride (HCl)], for which the solubility at 24 h in series [1] (FaSSIF, pH 6.5, fassif) is 1.2 µg/mL; in series [1] (setting [10]) it was 1080 µg/mL. In series [2], the Papp is 28.5 ×10⁻⁶ cm/s. The “Increase in exposure” value in series [4] (setting [9]) is “Less than proportional Less than proportional18”. For the same compound, the “pKa values (acidic)” value in series [7] was 10.218.
Take `CC(=O)Nc1cccc(-n2c(=O)n(C3CC3)c(=O)c3c(Nc4ccc(I)cc4F)n(C)c(=O)c(C)c32)c1` [Trametinib, trametinib *DMSO solvate]: in series [2], the Papp was 15.4 ×10⁻⁶ cm/s. The “Increase in exposure” value in series [4] (setting [9]) is “More than proportional (Cmax proportional)24”. In series [5] (poorly water-soluble anticancer drugs), the food effect entry is on record as “only a modest food effect, if any”.
For `CCCS(=O)(=O)Nc1ccc(F)c(C(=O)c2c[nH]c3ncc(-c4ccc(Cl)cc4)cc23)c1F` [Vemurafenib, vemurafenib], the solubility at 24 h is 5.4 µg/mL (≈ 11 µM) in series [1] (FaSSIF, pH 6.5, fassif) and 0.3 µg/mL (≈ 0.612 µM) in series [1] (setting [10]). Besides, the apparent permeability coefficient (Papp) in series [2] stood at 0.11 ×10⁻⁶ cm/s. The “Increase in exposure” value in series [4] (setting [9]) is listed as “Dose proportional Dose proportional40”.
Turning to `O=C1NC(=O)C(c2ccccc2)(c2ccccc2)N1` [phenytoin], the “absolute bioavailability (F)” value in series [8] is above 90%.
